Drawing on patent publication US5451508A, “Method and monoclonal antibodies for vitamin B12 determination” (Boehringer Mannheim GmbH, priority 1989, dated 1995), this text covers cross-reactivity and cross-reaction for 5 molecules.

This experiment deals with monoclonal antibody MAB 1 and MAB 2. The experiment is described as follows: ELISA determination of the cross-reaction of vitamin B12 derivatives with the monoclonal antibodies. Particulars: for cross-reactivity: monoclonal antibodies according to the invention (e.g. from cell lines ECACC 88101301 and ECACC 88101302), stated in description; for cross-reaction: values identical for MAB 1 and MAB 2, antigen added at 50, 500, 5000 μg/ml, calculated from concentrations giving 50% of max. signal. In kind it is binding, mice. Here is the method:
The plates are re-treated for 10 minutes with 0.9% sodium chloride solution and 1% albumin solution. Subsequently they are washed with 0.9% sodium chloride solution.
Afterwards they are incubated at 37° C. for one hour with 100 μl sample and washed again with 0.9% sodium chloride solution. In order to test the cross-reaction 50, 500 and 5000 μg/ml of the vitamin B12 derivative to be tested is added to the sample solution. A reduction of the measured signal in the presence of the derivative indicates a cross-reaction. A further incubation follows (1 hour, 37° C.) with 450 U/ml of a sheep-Fab-anti-mouse Fcγ peroxidase conjugate. After washing once again with 0.9% sodium chloride the peroxidase activity is determined in the usual way (for example with 2,2'azino-di-[3-ethylbenzthiazoline sulphonate (6)] (ABTS®), 30 minutes at room temperature, the difference in absorbance ΔmA is read at 422 nm).
The antigen to be tested for cross-reaction is added in increasing concentrations (50 μg/ml, 500 μg/ml, 5000 μg/ml) to the monoclonal antibody. Afterwards the cross-reaction is calculated from the following formula: [formula]

Turning to Purinylcobinamide, the cross-reactivity stood at 1.1% and the cross-reaction is 1.1.

Take `C/C1=C2/[N-][C@H]([C@H](CC(N)=O)[C@@]2(C)CCC(=O)NC[C@@H](C)OP(=O)([O-])O[C@H]2[C@@H](O)[C@@H](n3cnc4cc(C)c(C)cc43)O[C@@H]2CO)[C@]2(C)N=C(/C(C)=C3N=C(/C=C4N=C1[C@@H](CCC(N)=O)C\4(C)C)[C@@H](CCC(N)=O)[C@]\3(C)CC(N)=O)[C@@H](CCC(N)=O)[C@]2(C)CC(N)=O.[CH3-].[Co+3]` [Methylcobalamin]: the cross-reactivity is listed as 100% and the cross-reaction is given as 100.

Consider Cobyrinic acid-diamide, for which the cross-reactivity is less than 0.05% and the cross-reaction is recorded as less than 0.05.

Turning to “2-hydroxy-5,6-dimethylbenzimidazolyl-cobamide”, the cross-reactivity was found to be 1.5% and the cross-reaction is 1.5.

As to “(carboxy(2-cyanamino-4,5-dimethylphenyl)-amino)-cobamide”, the cross-reactivity is recorded as 0.07% and the cross-reaction is reported as 0.07.
